Results published in article PMC10590419, “Structural and mechanistic insights into the inhibition of respiratory syncytial virus polymerase by a non-nucleoside inhibitor” (Communications Biology, 2023).
“And” between values parts separate entries of the source, which are not always exact repeats. Equal values may be shown once. Read-outs that look alike come from different tables or passages of the source.

Target: recombinant RSV L+P (Human respiratory syncytial virus A, UniProt P28887)
Assay: Primed single nucleotide incorporation (SNI) gel assay, recombinant RSV L+P
Format: biochemical, Human RSV (strain A2)
Settings: for pGCG formation, % inhbition / pGCGA formation, % inhbition / pGCGAA formation, % inhbition: le-11, +3 site
Protocol: RNA polymerase reaction samples consisted of 0.2 μM recombinant RSV L-P polymerase, 0.2 μM of an RNA template (Le11 or Tr14), and 400 μM of a short primer (sequences as indicated in the figures), mixed in a buffer containing 50 mM Tris pH 7.4, 2 mM dithiothreitol and 6 mM MgCl2. For the assay in Fig. 1d, reactions were started by adding 100 nM [α-^32P]GTP (3000 Ci/mmol) tracer and incubated at 30 °C for 10 min. […] Reactions were stopped by adding an equal volume of gel loading buffer containing 90% formamide, 50 mM EDTA, 0.05% Xylene Cyanol, and Bromophenol Blue. Samples were denatured at 95 °C for 5 min and run on a 22.5% polyacrylamide urea sequencing gel at 80 W. The gel was transferred onto a Whatman cellulose chromatography paper (Millipore Sigma) and dried on a gel dryer (Bio-Rad) for 1 h. The dried gel was exposed to a phosphor-screen, scanned on a Typhoon phosphorimager (GE Healthcare), and quantified using ImageQuant (GE Healthcare).

[1] = le-11, +1 site, 1 uM, replicates, 1 µM
[2] = tr-14, +1 site, 0.00390625 uM, replicates, 0.00390625 µM
[3] = tr-14, +1 site, 0.0078125 uM, replicates, 0.0078125 µM
[4] = tr-14, +1 site, 0.015625 uM, replicates, 0.015625 µM
[5] = tr-14, +1 site, 0.03125 uM, replicates, 0.03125 µM
[6] = tr-14, +1 site, 0.0625 uM, replicates, 0.0625 µM
[7] = tr-14, +1 site, 0.125 uM, replicates, 0.125 µM
[8] = tr-14, +1 site, 0.25 uM, replicates, 0.25 µM
[9] = tr-14, +1 site, 0.5 uM, replicates, 0.5 µM
[10] = tr-14, +1 site, 1 uM, replicates, 1 µM

Chain of recombinant RSV L+P (P28887 whole entry): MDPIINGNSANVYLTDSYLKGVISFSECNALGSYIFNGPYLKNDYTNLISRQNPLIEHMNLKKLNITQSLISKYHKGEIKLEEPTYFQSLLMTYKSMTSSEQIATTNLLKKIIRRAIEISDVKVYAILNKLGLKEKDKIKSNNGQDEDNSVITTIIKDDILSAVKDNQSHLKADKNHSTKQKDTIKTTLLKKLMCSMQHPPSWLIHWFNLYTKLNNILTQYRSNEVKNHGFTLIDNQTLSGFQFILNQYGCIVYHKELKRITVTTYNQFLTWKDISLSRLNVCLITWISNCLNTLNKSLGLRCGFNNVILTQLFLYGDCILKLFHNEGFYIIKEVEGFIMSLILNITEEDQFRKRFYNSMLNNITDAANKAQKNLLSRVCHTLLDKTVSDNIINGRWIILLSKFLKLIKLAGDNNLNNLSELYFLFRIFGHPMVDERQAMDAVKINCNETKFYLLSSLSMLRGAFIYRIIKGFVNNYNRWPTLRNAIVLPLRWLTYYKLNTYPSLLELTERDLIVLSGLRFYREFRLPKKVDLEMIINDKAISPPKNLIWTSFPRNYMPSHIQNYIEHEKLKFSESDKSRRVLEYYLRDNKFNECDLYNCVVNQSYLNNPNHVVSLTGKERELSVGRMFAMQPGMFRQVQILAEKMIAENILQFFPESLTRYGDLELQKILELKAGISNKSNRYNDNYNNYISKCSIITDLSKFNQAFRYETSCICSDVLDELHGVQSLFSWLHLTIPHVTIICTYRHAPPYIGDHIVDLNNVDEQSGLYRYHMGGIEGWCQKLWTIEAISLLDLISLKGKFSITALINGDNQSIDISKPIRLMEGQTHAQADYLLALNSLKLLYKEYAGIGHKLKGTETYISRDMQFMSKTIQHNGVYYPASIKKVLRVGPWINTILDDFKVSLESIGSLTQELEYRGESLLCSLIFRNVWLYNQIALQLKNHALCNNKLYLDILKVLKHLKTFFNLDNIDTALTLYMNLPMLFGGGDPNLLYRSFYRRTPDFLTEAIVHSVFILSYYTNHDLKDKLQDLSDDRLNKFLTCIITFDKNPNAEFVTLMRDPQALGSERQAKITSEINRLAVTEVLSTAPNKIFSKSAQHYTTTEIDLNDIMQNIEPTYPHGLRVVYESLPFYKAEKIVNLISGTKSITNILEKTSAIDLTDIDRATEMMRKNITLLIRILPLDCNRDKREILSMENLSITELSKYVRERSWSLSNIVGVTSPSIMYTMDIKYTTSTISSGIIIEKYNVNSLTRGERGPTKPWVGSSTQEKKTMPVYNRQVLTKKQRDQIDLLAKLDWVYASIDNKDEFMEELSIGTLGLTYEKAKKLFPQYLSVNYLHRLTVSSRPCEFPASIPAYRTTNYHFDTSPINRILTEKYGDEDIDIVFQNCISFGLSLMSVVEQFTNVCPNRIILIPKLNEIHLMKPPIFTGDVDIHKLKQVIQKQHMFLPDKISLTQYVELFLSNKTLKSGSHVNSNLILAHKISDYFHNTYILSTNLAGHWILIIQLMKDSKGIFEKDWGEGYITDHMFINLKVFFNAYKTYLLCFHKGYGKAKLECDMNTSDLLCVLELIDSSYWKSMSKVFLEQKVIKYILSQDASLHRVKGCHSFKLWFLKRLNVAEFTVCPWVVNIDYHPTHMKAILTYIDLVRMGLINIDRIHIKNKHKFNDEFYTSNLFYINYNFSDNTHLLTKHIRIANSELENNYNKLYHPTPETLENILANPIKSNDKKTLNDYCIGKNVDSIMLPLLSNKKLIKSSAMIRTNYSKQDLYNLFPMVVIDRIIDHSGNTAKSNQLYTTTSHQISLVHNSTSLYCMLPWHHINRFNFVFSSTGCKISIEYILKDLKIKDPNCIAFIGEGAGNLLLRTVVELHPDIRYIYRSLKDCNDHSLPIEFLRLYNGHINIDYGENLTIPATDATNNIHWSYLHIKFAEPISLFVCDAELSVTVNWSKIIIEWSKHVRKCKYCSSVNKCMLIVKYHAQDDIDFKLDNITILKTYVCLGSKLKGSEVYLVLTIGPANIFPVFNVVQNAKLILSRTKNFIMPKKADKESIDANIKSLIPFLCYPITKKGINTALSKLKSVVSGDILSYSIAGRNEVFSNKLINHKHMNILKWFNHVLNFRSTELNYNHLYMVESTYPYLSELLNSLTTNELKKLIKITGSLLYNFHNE
Chain of recombinant RSV L+P (P03421 whole entry, further chain): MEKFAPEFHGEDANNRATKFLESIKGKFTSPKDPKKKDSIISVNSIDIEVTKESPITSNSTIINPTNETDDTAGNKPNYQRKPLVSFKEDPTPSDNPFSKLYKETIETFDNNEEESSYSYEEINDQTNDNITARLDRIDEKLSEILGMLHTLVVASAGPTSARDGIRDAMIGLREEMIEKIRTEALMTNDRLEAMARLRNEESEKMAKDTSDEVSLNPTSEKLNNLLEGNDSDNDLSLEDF

`COc1cc(C(=O)NC[C@](O)(c2cc(C(C)(C)O)c(F)c(-c3ccc(F)cc3)n2)C(F)(F)F)cc2cc(C)nnc12` [JNJ-8003] showed an inhibition at 0.5 µM (le-11, +1 site, 0.5 uM, replicates, read-out: pACG formation, % inhibition) of 92.2%, an inhibition at 0.5 µM (le-11, +1 site, 0.5 uM, replicates, read-out: pACGC formation, % inhibition) of 16.5% and an inhibition at 0.5 µM (le-11, +1 site, 0.5 uM, replicates, read-out: pACGCG formation, % inhibition) of 92%. For the same compound, the “pACG formation, % inhibition” value [1] was 87.3809%, the “pACGCG formation, % inhibition” value [1] was 94.5412% and the inhibition at 1 µM (le-11, +1 site, 1 uM, replicates, read-out: pACG formation, % inhibition) was 92.2%. The inhibition at 1 µM (le-11, +1 site, 1 uM, replicates, read-out: pACGC formation, % inhibition) was 32.4%, the inhibition at 1 µM (le-11, +1 site, 1 uM, replicates, read-out: pACGCG formation, % inhibition) was 96.1% and the “pGCG formation, % inhbition” value (0.00390625 uM, replicates) was 23.7355% and 15.5622%. The “pGCGA formation, % inhbition” value (0.00390625 uM, replicates) was 16.5629% and 19.135%, the “pGCGAA formation, % inhbition” value (0.00390625 uM, replicates) was 30.4505% and 24.1004% and the “pGCG formation, % inhbition” value (0.0078125 uM, replicates) was 29.8775% and 21.4895%. The “pGCGA formation, % inhbition” value (0.0078125 uM, replicates) was 17.4928% and 21.885%, the “pGCGAA formation, % inhbition” value (0.0078125 uM, replicates) was 52.8128% and 27.8666% and the “pGCG formation, % inhbition” value (0.015625 uM, replicates) was 50.6818% and 35.2042%. The “pGCGA formation, % inhbition” value (0.015625 uM, replicates) was 18.8117% and 25.399%, the “pGCGAA formation, % inhbition” value (0.015625 uM, replicates) was 51.4133% and 43.0842% and the “pGCG formation, % inhbition” value (0.03125 uM, replicates) was 80.9404% and 57.9787%. The “pGCGA formation, % inhbition” value (0.03125 uM, replicates) was 58.0899% and 36.3323%, the “pGCGAA formation, % inhbition” value (0.03125 uM, replicates) was 92.0704% and 68.8528% and the “pGCG formation, % inhbition” value (0.0625 uM, replicates) was 96.7556% and 96.0463%. For the same compound, the “pGCGA formation, % inhbition” value (0.0625 uM, replicates) was 77.4419% and 86.4681%, the “pGCGAA formation, % inhbition” value (0.0625 uM, replicates) was 98.2035% and 97.0821% and the “pGCG formation, % inhbition” value (0.125 uM, replicates) was 97.7751% and 97.5727%. The “pGCGA formation, % inhbition” value (0.125 uM, replicates) was 83.7601% and 82.1258%, the “pGCGAA formation, % inhbition” value (0.125 uM, replicates) was 98.5207% and 97.9021% and the “pGCG formation, % inhbition” value (0.25 uM, replicates) was 97.8446% and 96.8207%. The “pGCGA formation, % inhbition” value (0.25 uM, replicates) was 81.8016% and 75.4758%, the “pGCGAA formation, % inhbition” value (0.25 uM, replicates) was 98.388% and 97.2094% and the “pGCG formation, % inhbition” value (0.5 uM, replicates) was 96.68% and 97.1903%. For the same compound, the “pGCGA formation, % inhbition” value (0.5 uM, replicates) was 77.4429% and 81.101%, the “pGCGAA formation, % inhbition” value (0.5 uM, replicates) was 98.095% and 97.9035% and the “pGCG formation, % inhbition” value (1 uM, replicates) was 97.6913% and 97.6125%. The “pGCGA formation, % inhbition” value (1 uM, replicates) was 86.6689% and 82.9875%, the “pGCGAA formation, % inhbition” value (1 uM, replicates) was 98.8723% and 98.1005% and the IC50 (le-11 and tr-14 templates, +1 and +3 site, read-out: IC50 values in the SNI assays) was 17 to 32 nM. The “pACG formation, % inhibition” value [2] was 31.6%, the “pACGAG formation, % inhibition” value [2] was 12.8614% and 26.6827% and the inhibition at 0.00390625 µM (tr-14, +1 site, 0.00390625 uM, replicates, read-out: pACG formation, % inhibition) was 28.1%. For the same compound, the “pACG formation, % inhibition” value [3] was 29.3%, the “pACGAG formation, % inhibition” value [3] was 35.8415% and the inhibition at 0.0078125 µM (tr-14, +1 site, 0.0078125 uM, replicates, read-out: pACG formation, % inhibition) was 41.6%. For the same compound, the inhibition at 0.0078125 µM (tr-14, +1 site, 0.0078125 uM, replicates, read-out: pACGAG formation, % inhibition) was 21.3%, the “pACG formation, % inhibition” value [4] was 48.5% and the “pACGAG formation, % inhibition” value [4] was 57.7598%. For the same compound, the inhibition at 0.015625 µM (tr-14, +1 site, 0.015625 uM, replicates, read-out: pACG formation, % inhibition) was 62.7%, the inhibition at 0.015625 µM (tr-14, +1 site, 0.015625 uM, replicates, read-out: pACGAG formation, % inhibition) was 50.6% and the “pACG formation, % inhibition” value [5] was 79.8%. The “pACGAG formation, % inhibition” value [5] was 90.4225%, the inhibition at 0.03125 µM (tr-14, +1 site, 0.03125 uM, replicates, read-out: pACG formation, % inhibition) was 93.9% and the inhibition at 0.03125 µM (tr-14, +1 site, 0.03125 uM, replicates, read-out: pACGA formation, % inhibition) was 19.2%. For the same compound, the inhibition at 0.03125 µM (tr-14, +1 site, 0.03125 uM, replicates, read-out: pACGAG formation, % inhibition) was 92.2%, the “pACG formation, % inhibition” value [6] was 93.7% and the “pACGAG formation, % inhibition” value [6] was 96.2948%. It also gave an inhibition at 0.0625 µM (tr-14, +1 site, 0.0625 uM, replicates, read-out: pACG formation, % inhibition) of 95.6%, an inhibition at 0.0625 µM (tr-14, +1 site, 0.0625 uM, replicates, read-out: pACGA formation, % inhibition) of 23% and an inhibition at 0.0625 µM (tr-14, +1 site, 0.0625 uM, replicates, read-out: pACGAG formation, % inhibition) of 95.3%. For the same compound, the “pACG formation, % inhibition” value [7] was 94.1%, the “pACGAG formation, % inhibition” value [7] was 96.5623% and the inhibition at 0.125 µM (tr-14, +1 site, 0.125 uM, replicates, read-out: pACG formation, % inhibition) was 95.7%. For the same compound, the inhibition at 0.125 µM (tr-14, +1 site, 0.125 uM, replicates, read-out: pACGA formation, % inhibition) was 18.9%, the inhibition at 0.125 µM (tr-14, +1 site, 0.125 uM, replicates, read-out: pACGAG formation, % inhibition) was 95.9% and the “pACG formation, % inhibition” value [8] was 94.4%. For the same compound, the “pACGAG formation, % inhibition” value [8] was 96.9953%, the inhibition at 0.25 µM (tr-14, +1 site, 0.25 uM, replicates, read-out: pACG formation, % inhibition) was 95.3% and the inhibition at 0.25 µM (tr-14, +1 site, 0.25 uM, replicates, read-out: pACGA formation, % inhibition) was 21.3%. For the same compound, the inhibition at 0.25 µM (tr-14, +1 site, 0.25 uM, replicates, read-out: pACGAG formation, % inhibition) was 96.3%, the “pACG formation, % inhibition” value [9] was 93.2% and the “pACGAG formation, % inhibition” value [9] was 97.0094%. For the same compound, the inhibition at 0.5 µM (tr-14, +1 site, 0.5 uM, replicates, read-out: pACG formation, % inhibition) was 93.9%, the inhibition at 0.5 µM (tr-14, +1 site, 0.5 uM, replicates, read-out: pACGAG formation, % inhibition) was 95.7% and the “pACG formation, % inhibition” value [10] was 91.9%. The “pACGAG formation, % inhibition” value [10] was 97.3064%, the inhibition at 1 µM (tr-14, +1 site, 1 uM, replicates, read-out: pACG formation, % inhibition) was 92.2% and the inhibition at 1 µM (tr-14, +1 site, 1 uM, replicates, read-out: pACGA formation, % inhibition) was 39%. The inhibition at 1 µM (tr-14, +1 site, 1 uM, replicates, read-out: pACGAG formation, % inhibition) was 97%.
